Measured values reported in patent publication US6034065A, “Elucidation and synthesis of antineoplastic tetrapeptide phenethylamides of dolastatin 10” (Arizona Board of Regents, priority 1992, dated 2000).

Columns and labels:
Format in all cases: cell-based
OVCAR-3 = test: NCI human cancer cell line test, Ovarian OVCAR-3
Source text: (§1) Only two hundred years ago, many diseases ravaged humankind. Many of these diseases have been controlled or eradicated. In the development of the means to treat or control these diseases, work with the appropriate common experimental animals was of critical importance. With the various types of cancers, and with the HIV virus, such work is presently ongoing. The research for the treatment of various types of cancer is coordinated by the National Cancer Institute (NCI).NCI, as a government entity, has been charged with assisting anti-cancer research. To establish whether a substance has anti cancer activity, NCI has established a protocol. This protocol, which involves testing a substance against a cell line panel containing 60 human tumor cell lines, has been verified, and is accepted in scientific circles. This protocol, and the established statistical means of evaluating the results obtained therefrom have been amply described in the literature. See e.g. Principles & Practice of Oncology PPO Updates, Volume 3, Number 10, October 1989, by Michael R. Boyd, M.D., Ph.D., for a description of the protocol. The statistical analysis is explained in "Display and Analysis of Patterns of Differential Activity of Drugs Against Human Tumor Cell Lines: Development of Mean Graph and COMPARE Algorithm" Journal of the National Cancer Institute Reports Vol. 81, No. 14, Pg. 1088, Jul. 14, 1989, by K. D. Paull et al. Both articles are incorporated herein by this reference as if fully set forth.
(§2) The structural modifications of dolastatin 10 whose design and synthesis are described herein were evaluated for antineoplastic activity. This evaluation was conducted using the standard protocols established by National Cancer Institute (NCI) as described above. These protocols do evaluate whether the substances in question have antineoplastic activity against certain human cancer cell lines derived from human cancer patients. Substantial activity was found in those compounds tested. The antineoplastic activity of the compounds is reported below in Table 1. The results of the 60 cell line NCI in vitro testing of compound 6b conducted Jun. 22, 1992, is reported below in Table 2.

P-388 = test: Mouse leukemia cell P-388 growth inhibition
Description: as §2

SK-MEL-3 = test: NCI human cancer cell line test, Melanoma SK-MEL-3
Source text: as §1, §2

KM20L2 = test: NCI human cancer cell line test, Colon KM20L2
Source text: as §1, §2

SF-295 = test: NCI human cancer cell line test, CNS SF-295
Source text: as §1, §2

NCI-460 = test: NCI human cancer cell line test, Lung-NSC NCI-460
Source text: as §1, §2

A498 = test: NCI human cancer cell line test, Renal A498
Source text: as §1, §2

human cancer cell line = test: Human cancer cell line activity compared to dolastatin 10

| Substance | GI-50 (OVCAR-3) | LC-50 (OVCAR-3) | TGI (OVCAR-3) | ED-50 (P-388) | GI-50 (SK-MEL-3) | LC-50 (SK-MEL-3) | TGI (SK-MEL-3) | GI-50 (KM20L2) | LC-50 (KM20L2) | TGI (KM20L2) | GI-50 (SF-295) | LC-50 (SF-295) | TGI (SF-295) | GI-50 (NCI-460) | LC-50 (NCI-460) | TGI (NCI-460) | GI-50 (A498) | LC-50 (A498) | TGI (A498) | human cancer cell line activity as compared to dolastatin 10 (human cancer cell line) |
| --- | --- | --- | --- | --- | --- | --- | --- | --- | --- | --- | --- | --- | --- | --- | --- | --- | --- | --- | --- | --- |
| [2S-[1[1R*(R*),2S*],2R*[1S*,2S*]]]-N,N-dimethyl-L-valyl-N-[2-methoxy-4-[2- [1-methoxy-2-methyl-3-oxo-3-benzylamino-propyl]-1-pyrrolidinyl-1-(methylpropyl)-4-oxobutyl]-N-methyl-L-valineamide [Compound 6a] | < 0.0001 µg/mL | < 0.0001 µg/mL | < 0.1 ng/mL | 0.00378 mg/mL | < 0.0001 µg/mL | < 0.0001 µg/mL | < 0.1 ng/mL | < 0.0001 µg/mL | < 0.0001 µg/mL | < 0.1 ng/mL | < 0.0001 µg/mL | < 0.0001 µg/mL | < 0.1 ng/mL | < 0.0001 µg/mL | < 0.0001 µg/mL | < 0.1 ng/mL | < 0.0001 µg/mL | < 0.0001 µg/mL | < 0.1 ng/mL | – |
| [2S-[1[1R*(R*),2S*],2R*[1S*,2S*]]]-N,N-dimethyl-L-valyl-N-[2-methoxy-4-[2- [1-methoxy-2-methyl-3-oxo-3-[[3-phenyl-propyl]amino]propyl]-1-pyrrolidinyl- 1-(methylpropyl)-4-oxobutyl]-N-methyl-L-valineamide [Compound 6c] | 0.00018 µg/mL | < 0.01 µg/mL | 0.54 ng/mL | 0.00044 mg/mL | 0.00031 µg/mL | < 0.01 µg/mL | < 10 ng/mL | 0.00033 µg/mL | < 0.01 µg/mL | < 10 ng/mL | 0.00028 µg/mL | < 0.01 µg/mL | 0.79 ng/mL | 0.00031 µg/mL | < 0.01 µg/mL | < 10 ng/mL | 0.00039 µg/mL | < 0.01 µg/mL | < 10 ng/mL | – |
| R-Doe-isodolastatin 10 | – | – | – | – | – | – | – | – | – | – | – | – | – | – | – | – | – | – | – | did not show any significant difference |
| [2S-[1[1R*(R*),2S*],2R*[1S*,2S*]]]-N,N-dimethyl-L-valyl-N-[2-methoxy-4-[2- [1-methoxy-2-methyl-3-oxo-3-[[2-phenyl-ethyl]amino]propyl]-1-pyrrolidinyl-1-(methylpropyl)-4-oxobutyl]-N-methyl-L-valineamide [Compound 6b] | 0.000004 µg/mL | < 0.0001 µg/mL | 0.027 ng/mL | 0.0005 mg/mL | 0.000012 µg/mL | < 0.0001 µg/mL | < 0.1 ng/mL | 0.000005 µg/mL | < 0.0001 µg/mL | < 0.1 ng/mL | 0.000014 µg/mL | < 0.0001 µg/mL | 0.042 ng/mL | 0.000005 µg/mL | < 0.0001 µg/mL | < 0.1 ng/mL | 0.000013 µg/mL | < 0.0001 µg/mL | < 0.1 ng/mL | – |
